Measured values from patent US12171834B2, “Compositions and methods for inhibiting the activity of LAR family phosphatases” (CASE WESTERN RESERVE UNIVERSITY, priority 2012, dated 2024).
“And” between values parts separate entries of the source, which are not always exact repeats. Equal values may be shown once.

Experiments:
[1] = target: PTPσ (Homo sapiens, UniProt Q13332); test: pull-down assays, wedge domain with PTPσ; format: binding
[2] = target: full length LAR (Homo sapiens, UniProt P10586); test: pull-down assays, wedge domain with full length LAR; format: binding
Sequence of full length LAR (P10586 30-1907, species assumed): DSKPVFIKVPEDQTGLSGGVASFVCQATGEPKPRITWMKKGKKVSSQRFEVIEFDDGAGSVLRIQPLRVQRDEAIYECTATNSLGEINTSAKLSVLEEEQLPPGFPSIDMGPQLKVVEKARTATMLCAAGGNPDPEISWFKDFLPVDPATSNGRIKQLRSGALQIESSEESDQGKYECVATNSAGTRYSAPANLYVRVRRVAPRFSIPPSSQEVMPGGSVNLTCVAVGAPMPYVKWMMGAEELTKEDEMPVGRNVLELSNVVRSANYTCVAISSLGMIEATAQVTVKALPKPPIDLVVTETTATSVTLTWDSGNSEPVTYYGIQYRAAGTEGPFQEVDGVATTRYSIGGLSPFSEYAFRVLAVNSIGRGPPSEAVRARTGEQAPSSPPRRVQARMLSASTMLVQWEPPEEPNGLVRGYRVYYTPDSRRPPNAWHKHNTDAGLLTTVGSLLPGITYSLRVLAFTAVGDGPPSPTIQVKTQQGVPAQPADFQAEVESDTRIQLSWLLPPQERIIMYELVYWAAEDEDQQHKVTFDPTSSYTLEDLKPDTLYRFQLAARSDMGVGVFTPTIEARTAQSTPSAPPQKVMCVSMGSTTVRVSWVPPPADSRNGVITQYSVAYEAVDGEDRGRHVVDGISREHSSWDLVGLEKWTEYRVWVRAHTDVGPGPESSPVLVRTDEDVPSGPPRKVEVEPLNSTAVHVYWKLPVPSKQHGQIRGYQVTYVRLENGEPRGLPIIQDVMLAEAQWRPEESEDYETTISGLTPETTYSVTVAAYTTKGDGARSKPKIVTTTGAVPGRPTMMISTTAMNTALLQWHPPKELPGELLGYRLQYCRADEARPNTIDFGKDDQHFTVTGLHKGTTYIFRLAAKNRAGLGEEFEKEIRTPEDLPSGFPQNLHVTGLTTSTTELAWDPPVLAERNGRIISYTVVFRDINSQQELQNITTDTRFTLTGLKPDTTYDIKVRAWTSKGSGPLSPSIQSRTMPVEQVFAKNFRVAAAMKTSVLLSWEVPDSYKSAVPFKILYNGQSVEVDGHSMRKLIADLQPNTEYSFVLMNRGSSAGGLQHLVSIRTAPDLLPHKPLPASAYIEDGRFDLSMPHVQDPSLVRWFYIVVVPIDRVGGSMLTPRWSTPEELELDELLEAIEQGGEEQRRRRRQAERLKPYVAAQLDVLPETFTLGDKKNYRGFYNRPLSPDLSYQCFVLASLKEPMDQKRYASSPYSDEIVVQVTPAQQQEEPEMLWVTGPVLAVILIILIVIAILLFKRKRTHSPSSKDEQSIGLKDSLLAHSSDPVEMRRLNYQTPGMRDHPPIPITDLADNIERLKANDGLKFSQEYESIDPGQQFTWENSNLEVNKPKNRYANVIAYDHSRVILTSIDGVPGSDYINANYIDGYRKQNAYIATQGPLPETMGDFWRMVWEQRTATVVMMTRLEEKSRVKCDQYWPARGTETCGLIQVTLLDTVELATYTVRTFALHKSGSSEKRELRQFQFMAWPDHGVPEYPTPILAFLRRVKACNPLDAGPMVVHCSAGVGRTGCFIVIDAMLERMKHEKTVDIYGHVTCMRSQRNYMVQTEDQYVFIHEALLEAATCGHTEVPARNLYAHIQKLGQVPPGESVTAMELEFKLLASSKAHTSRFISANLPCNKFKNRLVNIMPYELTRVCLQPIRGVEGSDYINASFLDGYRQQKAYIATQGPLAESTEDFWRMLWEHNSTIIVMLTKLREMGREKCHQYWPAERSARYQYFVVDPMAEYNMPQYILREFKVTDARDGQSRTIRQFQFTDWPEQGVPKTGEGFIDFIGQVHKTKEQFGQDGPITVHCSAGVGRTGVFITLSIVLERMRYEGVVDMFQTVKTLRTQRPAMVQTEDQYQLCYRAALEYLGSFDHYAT

[3] = test system: contusive spinal cord injury in adult female Sprague-Dawley rats; test: Basso, Beattie and Bresnahan (BBB) scale for post-SCI locomotion; format: in vivo, rat; conditions: for BBB recovery over the course of the next 10 weeks: after 2 weeks post injury; for BBB recovery over the course of the next 10 weeks / average BBB score: 5 μM, 500 μl subcutaneously daily
Experimental: (§1) This Example describes methods of generating a moderate/severe contusive spinal cord injury with the Infinite Horizon device in adult female Sprague-Dawley rats for spinal cord injury (SCI) assays used in Examples 5-8. Briefly, rats were deeply anesthetized with a cocktail of ketamine/xylazine. Once under, the back was shaved and sterilized with Iodine and ethanol. Using a dorsal entry, the […] vertebrae 7-10 were exposed by a skin incision and at segments 8 and 9 a laminectomy was performed to expose the intact spinal cord. The spinal column and cord were stabilized in a stereotaxic frame prior to contusive impact. Finally, rats underwent a 250 kd Infinite Horizon contusion centered at the midline with no dwell time. Following muscle suturing and skin stapling, the animals were placed on a 37° C. hot pad and allowed ample access to food and water upon awakening from surgery. Pain was monitored, and animals in distress received a low dose of Marcaine at the injection site. Saline and Gentamycin (antibiotic) were given for 5 days post-surgery to prevent bladder infections. This experiment was performed start to finish 3 times. N−=15 ISP, N=11 vehicle and N=6 ILP.
(§2) Animals were randomly divided into three groups, vehicle control, ISP, or ILP. Lyophilized ISP or ILP peptide was first dissolved in sterile water at a concentration of 2.5 mM. To create individual treatments for each animal, the peptide was further diluted to a concentration of 5 μM in a vehicle solution of 5% DMSO in sterile saline. 25 ml of each treatment (ILP, ISP or vehicle) was alliquoted into 50 individual Eppendorf tubes, each containing 500 μl. The drugs were stored at −20 and thawed immediately prior to use. Each animal received 500 μl of either vehicle, 5 μM ISP or 5 μM ILP subcutaneously into the back above the lesion each day, starting 1 day after injury and lasting 7 weeks (49 treatments, 11 μg/rat/day).
Animals were allowed to freely roam on a table-top for three minutes while their hindlimb movements and locomotor patterns were being scored by a blinded observer according to the Basso, Beattie and Bresnahan scale for post-SCI locomotion (Basso et al, 1995). Behavior was performed at post injury days 1, 4, 7 and then weekly for 10 additional weeks. Statistical analysis was conducted by repeated measures 2 way Anova.

[4] = test system: adult dissociated dorsal root ganglia neurons on gradients of CSPG; test: spot assay: processes crossing CSPG (aggrecan) gradient; format: cell-based, rat; conditions: for neurons extend processes that cross CSPG gradients: peptide added at time of plating
Experimental: Adult female rat sensory dorsal root ganglion (DRG) neurons were obtained and grown on gradients of the chondroitin sulfate proteoglycan aggrecan as previously described. Glass bottom delta-T time-lapse dishes were coated with Poly-L-Lysine (PLL) and incubated at room temperature overnight. Spots were created by dissolving 2 mg/ml aggrecan in calcium and magnesium free hanks balanced salt solution (HBSS). Eight 2 μl dots were placed into one half of each dish and given ample time to dry onto the glass. The dishes were finally coated in 10 μg/ml laminin for 3 hours at 37° C. Following incubation, six thousand adult dissociated DRG neurons were added to each dish in neural basal-A media supplemented with Glutamax, Penn/strep and B27. […] In this Example, the spot assay was conducted on glass coverslips with a few alterations from the technique used for time-lapse microscopy. Following PLL treatment, the coverslips were dried and coated with a small amount of nitrocellulose to increase adhesive interactions needed for spot formation. Following drying of nitrocellulose, 4 spots were dotted onto each coverslip (one in each quadrant) using 700 μg/ml aggrecan, 5 μg/ml laminin dissolved into HBSS. Following drying, the coverslips were coated in 5 μg/ml laminin at 37 degrees C. for 3 hours. 2,000 adult dissociated dorsal root ganglia neurons were added to each coverslip in neural basal-A media supplemented with Glutamax, Penn/strep and B27. In addition, peptides were added at the required concentration at the time of plating. Cells were allowed to grow for 5 days prior to fixation in 4% Paraformaldehyde. These peptides were ordered from Genscript and dissolved in water and stored long-term at −80° C. Peptides were added to media at time of neuronal plating. After 5 days in vitro, the cells were fixed and stained for mouse anti-B3Tubulin (green). The number of processes completely spanning the gradient were counted and normalized to the number of neuronal cell bodies on each individual spot.

[5] = test system: contusive spinal cord injury in adult female Sprague-Dawley rats; test: grid-walk test after spinal cord injury; format: in vivo, rat; conditions: 12 weeks after spinal cord injury; for foot faults in the grid walk test versus vehicle: vehicle 6 foot-faults per meter
Experimental: as §1
as §2, with “Each animal received 500 μl of either vehicle, 5 μM ISP or 5 μM ILP subcutaneously into the back above the lesion each day, starting 1 day after injury and lasting 7 weeks (49 treatments, 11 μg/rat/day).” left out
Animals were allowed to freely roam on a wire grid (100 cm×75 cm, with 1 cm^2 gaps in the wire) 12 weeks after spinal cord injury. While an overhead camera tracked and calculated the total distance traveled (Ethovision), the number of foot-faults was counted manually by a blinded observer. […]

[6] = test system: contusive spinal cord injury in adult female Sprague-Dawley rats; test: urinary behavior in metabolic cages after spinal cord injury; format: in vivo, rat
Experimental: as §1, §2
Animals were placed in metabolic cages overnight for a dark cycle (16 hours). The urine was separated and collected into a syringe linked to a force transducer. The increase in force corresponding to each individual void was plotted in spike-2. The graphs were sampled into excel and manually confirmed to count the total number of voids and the average volume of each void.

[7] = test system: 5HT expression in the lumbar spinal cord; test: 5HT expression (axonal density) in lumbar spinal cord after spinal cord injury; format: in vivo, rat
Experimental: as §1
as §2, with “Each animal received 500 μl of either vehicle, 5 μM ISP or 5 μM ILP subcutaneously into the back above the lesion each day, starting 1 day after injury and lasting 7 weeks (49 treatments, 11 μg/rat/day).” left out
For axonal density analysis, the gray matter was outlined and mean pixel intensity was calculated in ImageJ. […] One section selected randomly every 200 μm was analyzed over a total distance of 2 cm […]. […]

[8] = test system: contusive spinal cord injury in adult female Sprague-Dawley rats; test: terminal urodynamic analyses after spinal cord injury; format: in vivo, rat; conditions: 14 weeks post injury
Experimental: as §1, with “ILP. […]” for “ILP.”
In a terminal experiment, animals were anesthetized with Urethane at 14 weeks post injury. […] Both muscle activity and pressure (measured through the catheter) were plotted in spike2.

[9] = test system: contusive spinal cord injury in adult female Sprague-Dawley rats; test: recovery beyond vehicle across behaviors after spinal cord injury; format: in vivo, rat
Experimental: as §1
Animals were randomly divided into three groups, vehicle control, ISP, or ILP. Lyophilized ISP or ILP peptide was first dissolved in sterile water at a concentration of 2.5 mM. […]

[10] = test system: growth cones of adult sensory DRG neurons on gradients of CSPG aggrecan; test: time-lapse microscopy of growth cone motility in CSPG spot assay; format: cell-based, rat; conditions: 4-6 days in vitro
Experimental: Adult female rat sensory dorsal root ganglion (DRG) neurons were obtained and grown on gradients of the chondroitin sulfate proteoglycan aggrecan as previously described. Glass bottom delta-T time-lapse dishes were coated with Poly-L-Lysine (PLL) and incubated at room temperature overnight. Spots were created by dissolving 2 mg/ml aggrecan in calcium and magnesium free hanks balanced salt solution (HBSS). Eight 2 μl dots were placed into one half of each dish and given ample time to dry onto the glass. The dishes were finally coated in 10 μg/ml laminin for 3 hours at 37° C. Following incubation, six thousand adult dissociated DRG neurons were added to each dish in neural basal-A media supplemented with Glutamax, Penn/strep and B27. The cells were allowed to grow for 4-6 days Immediately prior to the start of time lapse, the delta T dishes were sealed with a glass coverslip. 100× time-lapse microscopy was performed with a heated objective and heated stage to keep the cells at 37 degrees. Images were obtained every 30 seconds and stitched together to create a time lapse movie. Growth cone and filopodial dynamics were tracked and quantified manually with Metamorph.

Sequence of PTPσ (Q13332 30-1948): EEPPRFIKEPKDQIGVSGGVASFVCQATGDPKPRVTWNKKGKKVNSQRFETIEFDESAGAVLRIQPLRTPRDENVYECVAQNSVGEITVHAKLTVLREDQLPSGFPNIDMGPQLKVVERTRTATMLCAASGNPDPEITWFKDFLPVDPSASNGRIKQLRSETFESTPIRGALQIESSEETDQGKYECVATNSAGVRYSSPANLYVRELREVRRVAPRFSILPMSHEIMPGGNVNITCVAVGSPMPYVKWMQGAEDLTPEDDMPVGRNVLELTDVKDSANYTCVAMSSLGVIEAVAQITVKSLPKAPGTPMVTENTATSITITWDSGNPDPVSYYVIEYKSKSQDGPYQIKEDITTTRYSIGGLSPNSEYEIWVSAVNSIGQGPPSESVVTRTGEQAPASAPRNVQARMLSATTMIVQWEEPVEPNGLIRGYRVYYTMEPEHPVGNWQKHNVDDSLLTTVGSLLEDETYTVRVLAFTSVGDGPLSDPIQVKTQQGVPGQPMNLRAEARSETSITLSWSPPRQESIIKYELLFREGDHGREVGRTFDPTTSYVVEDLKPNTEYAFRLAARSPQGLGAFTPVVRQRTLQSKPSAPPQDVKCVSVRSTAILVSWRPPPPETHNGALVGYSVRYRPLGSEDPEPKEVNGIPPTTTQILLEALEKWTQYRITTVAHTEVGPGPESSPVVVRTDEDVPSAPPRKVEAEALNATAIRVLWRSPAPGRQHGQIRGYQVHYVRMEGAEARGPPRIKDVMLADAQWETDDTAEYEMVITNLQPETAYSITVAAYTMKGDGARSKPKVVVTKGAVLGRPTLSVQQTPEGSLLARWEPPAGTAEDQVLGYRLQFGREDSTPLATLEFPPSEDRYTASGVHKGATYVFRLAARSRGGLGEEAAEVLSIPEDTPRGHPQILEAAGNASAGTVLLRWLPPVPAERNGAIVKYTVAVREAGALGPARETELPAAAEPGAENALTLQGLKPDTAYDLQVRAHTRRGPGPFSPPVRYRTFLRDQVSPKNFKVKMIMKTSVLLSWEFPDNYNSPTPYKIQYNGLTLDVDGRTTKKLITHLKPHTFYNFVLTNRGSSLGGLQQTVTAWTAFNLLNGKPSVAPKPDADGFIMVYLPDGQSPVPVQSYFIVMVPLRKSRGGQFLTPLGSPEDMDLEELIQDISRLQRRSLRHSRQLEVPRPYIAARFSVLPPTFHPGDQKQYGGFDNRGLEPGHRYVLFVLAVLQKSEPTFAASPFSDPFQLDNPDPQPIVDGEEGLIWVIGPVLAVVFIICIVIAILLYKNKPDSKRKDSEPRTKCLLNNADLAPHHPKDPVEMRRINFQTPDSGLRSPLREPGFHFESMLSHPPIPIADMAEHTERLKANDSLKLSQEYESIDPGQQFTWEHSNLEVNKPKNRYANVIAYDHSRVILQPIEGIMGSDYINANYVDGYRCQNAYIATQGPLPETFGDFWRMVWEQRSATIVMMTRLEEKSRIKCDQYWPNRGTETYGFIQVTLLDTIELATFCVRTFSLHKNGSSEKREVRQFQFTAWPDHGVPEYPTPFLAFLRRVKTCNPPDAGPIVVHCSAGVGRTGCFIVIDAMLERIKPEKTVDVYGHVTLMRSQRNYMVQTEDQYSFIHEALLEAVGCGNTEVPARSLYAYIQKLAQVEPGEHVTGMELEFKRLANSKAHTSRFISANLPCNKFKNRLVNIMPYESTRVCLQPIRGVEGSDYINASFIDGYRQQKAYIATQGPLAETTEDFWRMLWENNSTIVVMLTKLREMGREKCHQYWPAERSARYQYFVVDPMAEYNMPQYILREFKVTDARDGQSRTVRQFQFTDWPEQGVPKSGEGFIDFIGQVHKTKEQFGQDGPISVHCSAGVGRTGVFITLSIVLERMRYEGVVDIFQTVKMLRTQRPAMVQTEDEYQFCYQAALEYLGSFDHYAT

DLADNIERLKANDGLKFSQEYESI (listed as Rattus rattus) [wedge domain of LAR, 24 amino acid wedge-shaped helix-loop-helix motif of LAR used in pull-down assays]
binding to sigma [1]: unable to bind to sigma
interaction with full length LAR [2]: able to specifically interact with full length LAR

NH2GRKKRRQRRRCDLADNIERLKANDGLKFSQEYESI-NH2 (H-GRKKRRQRRRCDLADNIERLKANDGLKFSQEYESI-NH2; listed as Homo sapiens) [ILP, LAR wedge domain peptide conjugated to HIV-TAT]
BBB recovery over the course of the next 10 weeks [3]: recovered only slightly beyond this point
neurons extend processes that cross CSPG gradients ([4]; 5 days in vitro): also allows neurons to traverse gradients of CSPG
foot faults in the grid walk test versus vehicle [5]: very slight insignificant improvement
void frequency (absolute) ([6]; naïve animals urinate twice per hour): once every two hours
volume/void ([6]; versus naïve animals): significantly increased

NH2GRKKRRQRRRCIREDDSLMLYALAQEKKESNMHES-NH2 (H-GRKKRRQRRRCIREDDSLMLYALAQEKKESNMHES-NH2; listed as Homo sapiens) [scrambled ISP-TAT peptide, reference compound]
neurons extend processes that cross CSPG gradients ([4]; 5 days in vitro): Neither vehicle control nor the scrambled ISP-TAT peptide allowed neuronal extensions across the gradient

NH2GRKKRRQRRRCDMAEHMERLKANDSLKLSQEYESI-NH2 [ISP]
5HT staining throughout the gray matter ([7]; 14 weeks following spinal cord injury, lumbar spinal cord): dramatic increase
quantified 5HT expression throughout the gray matter ([7]; FIG. 15): significantly increased
5HT expression in non-responders ([7]; the two ISP non-responders): did not show a dramatic rise
average BBB score ([3]; 6 weeks): 12
average BBB score ([3]; 7 weeks): greater than 13
BBB recovery over the course of the next 10 weeks [3]: continued to recover
BBB score reached by individual animals ([3]; individual animals): 19 and 18.5
animals that regained at least frequent coordinated stepping ([3]; rat, in vivo): 7 of 15
dose dependence of gradient crossing [4]: dose dependent
concentration giving optimal crossing of CSPG gradient ([4]; 5 days in vitro): 2.5 μm
neurons extend processes that cross CSPG gradients ([4]; 5 days in vitro): allows neurons to extend processes that cross CSPG gradients
coordinated bladder contractions with external urethral sphincter bursting [8]: many animals recovered coordinated bladder contractions with patterned external urethral sphincter bursting
foot faults made by several individual animals ([5]; several animals): less than 3 foot faults
foot faults in the grid walk test versus vehicle [5]: significantly fewer foot faults
animals with significant behavioral improvements ([9]; greater than two standard deviations better than vehicle mean): 13 of 15
animals regaining significant function in all three behaviors ([9]; rat, in vivo): 4 animals
recovery of void frequency ([6]; 4 or 8 weeks post injury): no significant recovery
void frequency ([6]; 12 weeks post injury): significant increase in void frequency
animals reaching naïve micturition frequency ([6]; rat, in vivo): multiple animals reaching normal (naïve) micturition frequency levels
increase of post-injury void frequency on average ([6]; versus vehicle): two fold
axonal stabilization and over adhesion in time-lapse [10]: prevented axonal stabilization and over adhesion
growth cones still motile ([10]; 8% in the control condition): 65%
